Experimental data from US20230263826A1, “Compositions and Methods for Treatment and Prevention of Type 1 Diabetes” (The UAB Research Foundation, priority 2021, published 2023).

System: female NOD mice
Assay: T1D incidence in female NOD mice administered FKGK18 (weekly blood glucose monitoring)
Format: in vivo, mouse
Protocol: FIGS. 1A-1M show the effects of temporal FKGK18 regimen on T1D incidence and islet phenotype, wherein female NOD mice were administered FKGK18 (20 mg/kg, 3 × weekly) or vehicle (PBS-T) starting at 4 or 8 weeks of age. FIGS. 1A and 1B show diabetes incidence; blood glucose was monitored weekly in the 4-week (FIG. 1A; n = 17 and 15 for PBS-T and FKGK18 groups, respectively) and 8-week (FIG. 1B; n = 15 each in the PBS-T and FKGK18 groups) regimen groups for up to 30 weeks. Two consecutive readings of ≥ 275 mg/dL were recorded as onset of T1D (^†P < 0.05). FIGS. 1C-1F show glucose tolerance test (GTT) results, wherein overnight fasted mice were administered glucose (2 g/kg, i.p.), glucose levels in blood from tail vein were monitored over a 2-hour period, and AUC were generated. FIGS. 1C and 1D show four-week group at 14 weeks of age; n = 5 each in the PBS-T and FKGK18 groups. FIGS. 1E and 1F show eight-week group at 25 weeks of age; n = 7 and 5 for PBS-T and FKGK18 groups, respectively. FIGS. 1G-1I show phenotype parameters in the 8-week regimen group. […] FIGS. 1H and 1I show β Cell mass (PBS-T, n = 15; FKGK18, n = 14) (FIG. 1H) and circulating insulin (n = 15 in each group) (FIG. 1I) were determined at sacrifice (PBS-T, 14-30 weeks of age; FKGK18, 16-36 weeks of age). FIGS. 1J and 1K show islet infiltration; paraffin sections (10 µm) of pancreas were prepared and stained with H&E. Percent infiltration for each islet was calculated as the value of noninfiltrated area subtracted from total islet area (% infiltrate = 100 × [(total area - noninfiltrated area)/(total area)]) using ImageJ software. (PBS-T, n = 14 and 166 islets; FKGK18, n = 15 and 260 islets). […] FIGS. 1L and 1M show islet immune cell phenotype; paraffin sections (10 µm) of pancreas were prepared and stained for CD4+-T cells or B (B220) cells. Data presented are mean ± SEM of CD4+ T cells or B cells per islet. […] Statistical analyses: (FIGS. 1A and 1B) Mantel-Cox test; (FIGS. 1D-1M) Student’s t test.
FIGS. 2A-2E show the effects of FKGK18-withdrawal regimen on T1D incidence and glucose tolerance, wherein female NOD mice were administered FKGK18 (20 mg/kg, 3 × weekly, n = 18) or vehicle (PBS-T, n = 17) starting at 10 days of age and until 14 weeks of age. […] FIGS. 2B and 2D show glucose tolerance test (GTT) results, assessed at 14 (FIG. 2B) and 25 (FIG. 2D) weeks of age (data are presented as mean ± SEM), as described in FIG. 1. FIGS. 2C and 2E show corresponding AUC. […]
Blood glucose levels were measured weekly via tail vein blood draw (2 µL) with Breeze 2 Blood Glucose Monitoring System (Bayer HealthCare). Diabetes incidence was based on 2 consecutive blood glucose readings ≥ 275 mg/dL, at which time the mouse was euthanized. […]

O=C(CCCCc1ccc2ccccc2c1)C(F)(F)F [FKGK18]
mice that remained diabetes free (FKGK18 20 mg/kg i.p. 3 times/week starting at 4 weeks of age, monitored up to 30 weeks, PBS-T 80% T1D incidence): 40%
T1D incidence vs corresponding PBS-T group (FKGK18 20 mg/kg i.p. 3 times/week starting at 8 weeks of age, modest delay): not significantly different
NOD that developed T1D (FKGK18 20 mg/kg i.p. 3 times/week starting at 10 days of age, by 25-30 weeks of age, vehicle 80%-90% diabetic, data not shown): 10%-15%
decreased T1D incidence after FKGK18 withdrawal (FKGK18 from 10 days until 14 weeks of age, then withdrawn, monitored up to 30 weeks): not evident
